Patent US20030204875A1, “Novel agrobacterium-mediated plant transformation method” (priority 1999, published 2003)
Where two headings read alike, the source gives them in different places.

How the values were obtained:
[1] = system: immature embryos of genotype (H99×Pa 91)A188
Experimental: Immature embryos of genotype (H99×Pa 91)A188 were isolated as described. […] The Agrobacterium strain was pre-induced as described and three mls of pre-induced Agrobacterium suspension (A660 OD 0.5) supplemented with 20 ? M AgNO3 was added to a 6-well tissue culture plate as described above. Inoculation was performed for 15 minutes. The Agrobacterium suspension was removed and embryos were placed on semi-solid co-culture medium containing 20 ? M AgNO3 (final concentration). All the tissues were incubated for three days in the dark. […] Control embryos were cultured in the absence of AgNO3 in all steps of the transformation process. Transformation efficiency was calculated based on the number of embryos producing paromomycin resistant calli.

[2] = system: T-DNA transfer to immature embryos of genotype H99×A188; details: for Average number of GUS foci/explant: three days
Experimental: (§1) Immature embryos of genotype H99×A188 were isolated as described above. The disarmed Agrobacterium strain ABI harboring binary vector pMON18365 (FIG. 2) was used. The Agrobacterium strain was pre-induced as described above and three mls of pre-induced Agrobacterium suspension (A660 OD 4.0) was added to a 6-well tissue culture plate as described earlier. The inoculation was performed for three hours under vacuum. The Agrobacterium suspension was removed and embryos were placed on respective semi-solid medium containing various concentrations of AgNO3 (0, 10, 20, 40, 60 ? M AgNO3 final concentration). All the tissues were incubated for three days in the dark. The efficiency of T-DNA delivery was estimated by a transient GUS analysis performed three days after co-culture by counting the number of GUS foci per immature embryo explant (Table 21). Efficiency of culture response was determined by transferring the embryos to a delay medium (D medium, supplemented with 500 mg/L Carbenicillin) and taking observation 2 weeks post transfer.

[3] = system: immature embryos of genotype H99×A188; details: observed 2 weeks post transfer to delay medium
Experimental: as §1

rice immature embryos = details: OD660 2.0 plus 20 mM AgNO3, co-culture one day
Experimental: (§2) The following transformation protocols included the following parameters: use of immature embryos that were pre-cultured for less than 24 h; a bacterial inoculation density >2.0 at OD660, a co-culture duration of from one to three days, the use of a higher concentration of auxin or different type of auxin/combination of growth regulators than that required during normal tissue culture, a delay period 3-7d following co-culture (with out selection pressure), no sub-culture of the original explant, a step-wise increase or decrease, depending on the crop and selection scheme and a transformation duration between 9-12 weeks.

wheat immature embryos = details: OD660 4.0 plus 20 mM AgNO3, co-culture three days
Experimental: as §2

corn immature embryos = system: corn immature embryos
Experimental: as §2

[4] = system: T-DNA transfer to BMS cells
Experimental: Transformation of BMS suspension cells was performed following the protocol described in Table 8. For transforming kalanchoe leaves, a suspension of cells from Agrobacterium strain A281 was applied after performing mechanical wounding as described in White and Nester. The Agrobacterium strain, A136 harboring a binary vector pMON25457 (FIG. 3) was used as a negative control.
The efficiency of T-DNA delivery to BMS cells was measured by transient GUS expression post co-cultivtion as well as by staining GUS positive colonies appearing on a single piece of filter 4 weeks after co-culture.
During pre-induction, AgNO3 was added at two different levels (20 ? M and 40 ? M final concentration) to the pre-induction medium. The final optical density prior to the induction was adjusted to A660 (OD 0.2). Agrobacterium cells were pre-induced for 15 hours. Measurement of the optical density (measure of growth) was taken at the end of pre-induction, just prior to transformation. Agrobacterium cells pre-induced in the absence of AgNO3 were used as a control.

[5] = system: Agrobacterium tumefaciens strain C58 (ABI)
Experimental: Disarmed Agrobacterium tumefaciens strain C58 (ABI) harboring binary vector pMON18365 (FIG. 2) was used in this Example. The Agrobacterium strain was pre-induced as described previously.
Three mls of pre-induced Agrobacterium suspension (A660 OD 1.0) was added to a 6-well tissue culture plate. After adding the explants, the plant tissues and Agrobacterium suspension cells were subjected to vacuum infiltration for three hours. After the three hour vacuum infiltration, the Agrobacterium suspension was removed and the plant tissues were placed on semi-solid medium containing 10 ? M AgNO3 (final concentration). All the tissues were incubated for three days in the dark.
All explants were transferred to the medium without the growth inhibiting agent and evaluation of Agrobacterium growth was observed seven days post-transfer.

[6] = system: IE-derived callus, genotype (H99×Pa 91)A188; details: 50 μM in co-culture medium; three weeks after the transformation
Experimental: Immature embryos of genotype (H99×Pa 91)A188 were isolated as described. […] The Agrobacterium strain was pre-induced as described. The inoculation was performed using a concentration of A660 OD 4.0 for 15 minutes as described. Post inoculation, Agrobacterium suspension was removed and embryos were placed on different semi-solid co-culture media supplemented with various bacteriocidal compounds. All the tissues were incubated for three days in the dark. The transformation protocol followed was as described previously (corn IE transformation) except that the 1st selection with 50 mg/L Paromomycin was replaced with 25 mg/L Paromomycin for 2 weeks and 50 mg/L Paromomycin for 2 additional weeks. Transformation efficiency was calculated based on the number of embryos producing nptII positive plants as determined by a leaf bleach assay as described earlier. Three weeks after the transformation, the quality and growth characteristics of IE-derived callus co-cultured in the presence of different growth inhibiting agents.

[7] = 10 μM AgNO3 in co-culture medium
[8] = 20 μM AgNO3 in co-culture medium
[9] = 40 μM AgNO3 in co-culture medium
[10] = 60 μM AgNO3 in co-culture medium
[11] = EHA 101:pMON25457 pre-induced with 20 μM AgNO3
[12] = EHA 101:pMON25457 pre-induced with 40 μM AgNO3

With O=[N+]([O-])[O-].[Ag+] [AgNO3, silver nitrate] as the molecule, how does the “% Transformation” value ([1]; 5d 20 μM AgNO3: present during inoculation and 5 day delay, not during 3 day co-culture) read?
The value was 7.8 (4/51) %.

And the “% Transformation” value ([1]; 8d 20 μM AgNO3: present during inoculation, 3 day co-culture and 5 day delay)?
The value was 9.0 (5/55) %.

What about the “Effect on frequency of T-DNA transfer and tissue survival” value ([2]; 10 μM AgNO3 during co-culture) of the same molecule?
The value was “positive effect”.

What about the “Average number of GUS foci/explant” value [2, 7] of the same molecule?
The value was 63.

What about the “Average number of GUS foci/explant” value [2, 8] of the same molecule?
Its value is 26.

And the “Average number of GUS foci/explant” value [2, 9]?
The value was 28.

And the “Effect on T-DNA transfer” value ([2]; 60 μM AgNO3 during co-culture)?
Its value is “inhibitory”.

And the “Average number of GUS foci/explant” value [2, 10]?
The value was 12.

And the “% of immature embryos responding to culture” value [3, 7]?
Its value is 42%.

And the “% of immature embryos responding to culture” value [3, 8]?
The value was 64%.

What about the “% of immature embryos responding to culture” value [3, 9] of the same molecule?
Its value is 62%.

What about the “% of immature embryos responding to culture” value [3, 10] of the same molecule?
Its value is 60%.

What about the “Transformation (%)” value (rice immature embryos) of the same molecule?
Its value is 23%.

And the “Transformation (%)” value (wheat immature embryos)?
Its value is 4%.

And the “Transformation (%)” value (corn immature embryos; OD660 2.0 plus 20 μM AgNO3, co-culture three days)?
The value was 18%.

And the “Transformation (%)” value (corn immature embryos; OD660 4.0 plus 20 μM AgNO3, co-culture three days)?
Its value is 8%.

And the Stable transformants obtained ([4]; Agrobacterium cells treated with AgNO3 during pre-induction)?
The Stable transformants obtained was “no stable transformants”.

And the “Average # of GUS positive colonies/filter paper” value [4, 11]?
The value was 0.

And the “Results (T-DNA transfer)” value [4, 11]?
Its value is “no transfer”.

What about the “Average # of GUS positive colonies/filter paper” value [4, 12] of the same molecule?
The value was 0.

And the “Results (T-DNA transfer)” value [4, 12]?
Its value is “no transfer”.

And the “Growth of Agrobacterium cells surrounding explants” value ([5]; co-culture medium with 10 μM AgNO3, three days)?
Its value is “No growth”.

What about the “Growth of Agrobacterium cells surrounding explants after transfer to medium without the agent” value ([5]; seven days post-transfer, after three days on 10 μM AgNO3) of the same molecule?
The value was “Profuse growth”.

And the “Culture response (callus quality) on co-culture media” value [6]?
The value was “embryogenically the most competent callus”.
